Source: publication PMC10552397 (Cell Communication and Signaling : CCS, 2023)
Values joined by “and” are separate entries in the source; they are usually repeats but may differ in a detail not shown here. Identical values can stand only once.

Experiments:
JUNB = experiment: TPP-TR/RTSA, JUNB; type: binding, Homo sapiens; conditions: 100 nM vs DMSO, 6 h, HeLa wt
Description: (§1) TPP was performed essentially as described, but with major modifications to the TMT labeling sets and statistical data analysis for TPP-TR.
(§2) Adherent cells were washed in the dish once with DPBS and harvested by Trypsin–EDTA (0.25%, Thermo Fisher Scientific, Waltham, MA, USA, #25,200,056) treatment. […]
(§3) After temperature treatment, samples were supplemented with lysis buffer (final concentrations: 0.36 U/µL benzonase, 1.5 mM MgCl2, 1 mM Na3VO4, 10 mM NaF, 2.5 mM Na4P2O7, 0.8% w/v NP-40) for 1 h on ice. […] The total protein concentration of the resulting cell extracts containing the fraction of soluble, non-denatured proteins was determined (Pierce 660 nm Protein Assay, BSA as standard). […] The two (37 °C or 50 °C) x ten (concentrations) x three (replicates) = 60 TPP-CCR samples and two (treatment and control) x ten (temperatures) x three (replicates) = 60 TPP-TR samples were analyzed by LC–MS/MS. GRASP55 was additionally quantified from the TPP-TR samples by immunoblotting as described in the respective section.
(§4) For TPP-CCR, SP3 was performed as described with slight modifications to the original protocol using on average 5 µg total protein per sample and resulting in theoretically 5 µg peptides in 22 µL 50 mM triethylammonium bicarbonate per sample. […] This volume was calculated such that the lowest two temperature samples (36.5 °C and 41.2 °C) contained 10 µg total protein on average. […]

GRASP55 = GRASP55 (Homo sapiens, UniProt Q9H8Y8); experiment: Thermal proteome profiling compound concentration range (TPP-CCR), GRASP55; type: binding; set-up: endogenous in cells; conditions: for GORASP2 dose response, average: average of n=1-3; for GORASP2 dose response, fit: value of fitted curve; for EC50: 3 min at 50 °C; for normalized.Reporter.intensity: single replicates n1-n3
Description: Adherent cells were washed in the dish once with DPBS and harvested by Trypsin–EDTA (0.25%, Thermo Fisher Scientific, Waltham, MA, USA, #25,200,056) treatment. After addition of 35 mL DPBS, the cells were pelleted by centrifugation (300 rcf, 5 min, 4 °C), and washed twice by re-suspending and pelleting using 45 mL and 1 mL DPBS, respectively, to remove excess trypsin and for transfer into pre-weighed 2 mL Eppendorf tubes to determine the cell pellet wet weights as quality check after centrifugation (300 rcf, 5 min, 4 °C) and complete removal of the supernatant. Cells for TPP-TR were resuspended using 1 mL, and cells for TPP-CCR were resuspended using 0.4 mL ice-cold DPBS, respectively, supplemented with protease inhibitor cocktail (Roche, Basel, Switzerland, #5,892,791,001). […] Cell suspensions were shortly centrifuged (1 s or less) using a benchtop centrifuge to release trapped air and to achieve an even liquid level without pelleting the cells. The samples were then temperature treated by a 7 min pre-incubation at RT, 3 min temperature treatment in the PCR cycler (DNA Engine Tetrad 2, lid temperature 70 °C) at different temperatures (37 °C or 50 °C for TPP-CCR or the temperatures given in Table 2 for TPP-TR) and a 3 min post-incubation at RT in a metal heating block for uniform heat dissipation.
After temperature treatment, samples were supplemented with lysis buffer (final concentrations: 0.36 U/µL benzonase, 1.5 mM MgCl2, 1 mM Na3VO4, 10 mM NaF, 2.5 mM Na4P2O7, 0.8% w/v NP-40) for 1 h on ice. The lysates were cleared from cell debris as well as denatured and precipitated proteins by centrifugation at 20,000 rcf and 4 °C for 30 min. The total protein concentration of the resulting cell extracts containing the fraction of soluble, non-denatured proteins was determined (Pierce 660 nm Protein Assay, BSA as standard). Cell extracts were shock frozen in liquid nitrogen and stored at -80 °C. The three replicates for TPP-TR and TPP-CCR were prepared on consecutive days, respectively. The two (37 °C or 50 °C) x ten (concentrations) x three (replicates) = 60 TPP-CCR samples and two (treatment and control) x ten (temperatures) x three (replicates) = 60 TPP-TR samples were analyzed by LC–MS/MS. GRASP55 was additionally quantified from the TPP-TR samples by immunoblotting as described in the respective section.
For TPP-CCR, SP3 was performed as described with slight modifications to the original protocol using on average 5 µg total protein per sample and resulting in theoretically 5 µg peptides in 22 µL 50 mM triethylammonium bicarbonate per sample. For each of the two (treatment and control) x three (replicates) = six TPP-TR temperature treatment sample sets, the same volume for each of the ten temperature samples was used for SP3 processing, thus, maintaining the information about the temperature dependent non-denatured protein content. This volume was calculated such that the lowest two temperature samples (36.5 °C and 41.2 °C) contained 10 µg total protein on average. The samples were diluted using SDS containing buffer (20 µL final, final concentrations: 7.5% glycerol, 3% SDS, 37.5 mM Tris/HCl pH 7.0) and the proteins were reduced, alkylated, and precipitated on the solid phase as described using adjusted volumes (2 × due to processing 10 µg instead of 5 µg). Volumes for washing of the aggregated proteins on the solid phase and for tryptic digestion were kept unchanged, however, to maintain the maximal total protein to trypsin/Lys-C ratio at 50:1 in the two rounds of digestion (13 h and 4 h), respectively, 2 × 0.2 µg trypsin/Lys-C was used per sample, theoretically resulting in at most about 10 µg peptides in 22 µL 50 mM triethylammonium bicarbonate. […]

JUN = experiment: TPP-TR/RTSA, JUN; type: binding, Homo sapiens; conditions: 100 nM vs DMSO, 6 h, HeLa wt
Description: as §1, §2, §3, §4

## CCCCCC1=C/C(=C/c2[nH]c(-c3ccc[nH]3)cc2OC)N=C1C [Prodigiosin, prodigiosin]
JUNB
  Mean_dTm: 2.343
GRASP55; 37°C, 0.0976562 nM prodigiosin
  GORASP2 dose response, average: -0.42
  GORASP2 dose response, fit: 0.0663
GRASP55; 37°C, 0.390625 nM prodigiosin
  GORASP2 dose response, average: 0.54
  GORASP2 dose response, fit: 0.10
GRASP55; 37°C, 1.5625 nM prodigiosin
  GORASP2 dose response, average: 0.10
  GORASP2 dose response, fit: 0.16
GRASP55; 37°C, 6.25 nM prodigiosin
  GORASP2 dose response, average: 0.08
  GORASP2 dose response, fit: 0.23
GRASP55; 37°C, 25 nM prodigiosin
  GORASP2 dose response, average: 0.33
  GORASP2 dose response, fit: 0.33
GRASP55; 37°C, 100 nM prodigiosin
  GORASP2 dose response, average: 0.64
  GORASP2 dose response, fit: 0.44
GRASP55; 37°C, 400 nM prodigiosin
  GORASP2 dose response, average: 0.47
  GORASP2 dose response, fit: 0.56
GRASP55; 37°C, 1600 nM prodigiosin
  GORASP2 dose response, average: 0.85
  GORASP2 dose response, fit: 0.68
GRASP55; 37°C, 6400 nM prodigiosin
  GORASP2 dose response, average: 0.55
  GORASP2 dose response, fit: 0.77
GRASP55; 50°C, 0.0976562 nM prodigiosin
  GORASP2 dose response, average: 0.0745
  GORASP2 dose response, fit: 0.06
GRASP55; 50°C, 0.390625 nM prodigiosin
  GORASP2 dose response, average: 0.13
  GORASP2 dose response, fit: 0.17
GRASP55; 50°C, 1.5625 nM prodigiosin
  GORASP2 dose response, average: 0.40
  GORASP2 dose response, fit: 0.39
GRASP55; 50°C, 6.25 nM prodigiosin
  GORASP2 dose response, average: 0.72
  GORASP2 dose response, fit: 0.68
GRASP55; 50°C, 25 nM prodigiosin
  GORASP2 dose response, average: 0.81
  GORASP2 dose response, fit: 0.87
GRASP55; 50°C, 100 nM prodigiosin
  GORASP2 dose response, average: 0.97
  GORASP2 dose response, fit: 0.96
GRASP55; 50°C, 400 nM prodigiosin
  GORASP2 dose response, average: 0.97
  GORASP2 dose response, fit: 0.99
GRASP55; 50°C, 1600 nM prodigiosin
  GORASP2 dose response, average: 1.04
  GORASP2 dose response, fit: 1.00
GRASP55; 50°C, 6400 nM prodigiosin
  GORASP2 dose response, average: 0.85
  GORASP2 dose response, fit: 1.00
GRASP55; EC50 of GRASP55 stabilization, HeLa wt, 6 h
  EC50: 2.6 nM
GRASP55; GRASP55/GORASP2
  diff pseudoR2(50-37°C): 0.81
GRASP55; GRASP55/GORASP2, 37°C
  pseudoR2 (dose response curve fit, 37°C): 0.16
GRASP55; GRASP55/GORASP2, 37°C, 0.0976562 nM prodigiosin
  normalized.Reporter.intensity: 0.13 and -0.19 and -1.19
GRASP55; GRASP55/GORASP2, 37°C, 0.390625 nM prodigiosin
  normalized.Reporter.intensity: 0.0349 and 0.46 and 1.11
GRASP55; GRASP55/GORASP2, 37°C, 1.5625 nM prodigiosin
  normalized.Reporter.intensity: 0.45 and -0.0156 and -0.12
GRASP55; GRASP55/GORASP2, 37°C, 6.25 nM prodigiosin
  normalized.Reporter.intensity: 0.55 and 0.11 and -0.42
GRASP55; GRASP55/GORASP2, 37°C, 25 nM prodigiosin
  normalized.Reporter.intensity: 0.93 and 0.24 and -0.19
GRASP55; GRASP55/GORASP2, 37°C, 100 nM prodigiosin
  normalized.Reporter.intensity: 1.03 and 0.10 and 0.80
GRASP55; GRASP55/GORASP2, 37°C, 400 nM prodigiosin
  normalized.Reporter.intensity: 0.81 and 0.51 and 0.08
GRASP55; GRASP55/GORASP2, 37°C, 1600 nM prodigiosin
  normalized.Reporter.intensity: 1.12 and 0.54 and 0.88
GRASP55; GRASP55/GORASP2, 37°C, 6400 nM prodigiosin
  normalized.Reporter.intensity: -0.23 and 0.82 and 1.06
GRASP55; GRASP55/GORASP2, 37°C, Hill slope of fit
  H (dose response curve fit parameters, 37°C): 0.35 and 0.3479
GRASP55; GRASP55/GORASP2, 50°C
  pseudoR2 (dose response curve fit, 50°C): 0.97
GRASP55; GRASP55/GORASP2, 50°C, 0.0976562 nM prodigiosin
  normalized.Reporter.intensity: 0.0172 and 0.11 and 0.10
GRASP55; GRASP55/GORASP2, 50°C, 0.390625 nM prodigiosin
  normalized.Reporter.intensity: 0.12 and 0.19 and 0.10
GRASP55; GRASP55/GORASP2, 50°C, 1.5625 nM prodigiosin
  normalized.Reporter.intensity: 0.43 and 0.35 and 0.41
GRASP55; GRASP55/GORASP2, 50°C, 6.25 nM prodigiosin
  normalized.Reporter.intensity: 0.85 and 0.64 and 0.65
GRASP55; GRASP55/GORASP2, 50°C, 25 nM prodigiosin
  normalized.Reporter.intensity: 0.87 and 0.76 and 0.81
GRASP55; GRASP55/GORASP2, 50°C, 100 nM prodigiosin
  normalized.Reporter.intensity: 0.94 and 0.97 and 0.99
GRASP55; GRASP55/GORASP2, 50°C, 400 nM prodigiosin
  normalized.Reporter.intensity: 0.91 and 0.97 and 1.04
GRASP55; GRASP55/GORASP2, 50°C, 1600 nM prodigiosin
  normalized.Reporter.intensity: 1.02 and 1.10 and 1.01
GRASP55; GRASP55/GORASP2, 50°C, 6400 nM prodigiosin
  normalized.Reporter.intensity: 0.82 and 0.89 and 0.84
GRASP55; GRASP55/GORASP2, 50°C, Hill slope of fit
  H (dose response curve fit parameters, 50°C): 0.84 and 0.8417
GRASP55; HeLa wt, 6 h, 37 °C
  dose response of GRASP55 at 37 °C (abundance control): no dose response effects
GRASP55; pEC50 of GRASP55 stabilization, HeLa wt, 6 h
  EC50: 2.63 nM
JUN
  Mean_dTm: -0.6723
